# Target: T1, ERα protein (HiBiT-tagged) in ESR1_HiBiT KI MCF7 cells (Homo sapiens, UniProt P03372)
# T1 sequence (P03372 1-595): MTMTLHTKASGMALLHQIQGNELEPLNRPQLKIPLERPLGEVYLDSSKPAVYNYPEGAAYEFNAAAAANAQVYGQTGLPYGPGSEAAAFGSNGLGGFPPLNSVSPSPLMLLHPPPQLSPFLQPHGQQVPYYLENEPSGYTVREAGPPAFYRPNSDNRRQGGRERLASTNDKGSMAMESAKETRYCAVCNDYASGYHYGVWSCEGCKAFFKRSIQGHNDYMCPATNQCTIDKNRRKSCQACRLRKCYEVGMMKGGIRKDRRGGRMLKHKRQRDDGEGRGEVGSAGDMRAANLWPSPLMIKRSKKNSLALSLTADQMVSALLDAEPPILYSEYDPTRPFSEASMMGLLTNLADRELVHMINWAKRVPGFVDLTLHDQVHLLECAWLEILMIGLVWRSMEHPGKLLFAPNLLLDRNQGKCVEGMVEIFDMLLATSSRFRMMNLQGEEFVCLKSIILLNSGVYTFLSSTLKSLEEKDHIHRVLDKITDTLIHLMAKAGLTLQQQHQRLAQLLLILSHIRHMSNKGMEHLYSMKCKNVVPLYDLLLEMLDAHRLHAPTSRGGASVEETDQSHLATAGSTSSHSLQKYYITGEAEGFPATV
# Assay: Nano Glo HiBiT Lytic Degradation Assay
# Type: cell-based
# Conditions: 6 hours with compound, 14-point dose response 1:3, bell-shape curve fit, half-maximal effect of first Hill model, read-out: MCF7 ESR1 HiBiT - (DC50)
# In short: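 ESR1_HiBiT knock-in MCF7 cells were seeded 24 h before treatment, then exposed to compounds for 6 h at 37° C (14-point 1:3 curves, 10 mM top stock, 0.1% DMSO final, duplicates). HiBiT-ERα was read by lytic LgBiT luminescence, background-subtracted and normalized to DMSO. DC50 was taken from the half-maximal point of the first Hill component of a bell-shaped fit.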
row,DC50,Structure (SMILES)
1,≥ 10000 nM,"O=C1CC[C@H](N2Cc3cc(N4CCN(CC5CCN(c6ccc([C@H]7c8ccc(O)cc8C(F)(F)C[C@H]7C7CCCCC7)cc6)CC5)CC4)ccc3C2=O)C(=O)N1 [Compound I-98, (S)-3-(5-(4-((1-(4-((1S,2S)-2-cyclohexyl-4,4-difluoro-6-hydroxy-1,2,3,4-tetrahydronaphthalen-1-yl)phenyl)piperidin-4-yl)methyl)piperazin-1-yl)-1-oxoisoindolin-2-yl)piperidine-2,6-dione]"
2,0.67 nM,"O=C1CC[C@H](N2Cc3cc(N4CCN(CC5CCN(c6ccc([C@@H]7c8ccc(O)cc8C(F)(F)C[C@@H]7C7CCCCC7)cc6)CC5)CC4)ccc3C2=O)C(=O)N1 [Compound I-99, (S)-3-(5-(4-((1-(4-((1R,2R)-2-cyclohexyl-4,4-difluoro-6-hydroxy-1,2,3,4-tetrahydronaphthalen-1-yl)phenyl)piperidin-4-yl)methyl)piperazin-1-yl)-1-oxoisoindolin-2-yl)piperidine-2,6-dione]"
3,≥ 10000 nM,"O=C1CC[C@H](N2Cc3cc(N4CCN(CC5CCN(c6ccc([C@H]7c8ccc(O)cc8CC[C@H]7c7ccccn7)cc6)CC5)CC4)ccc3C2=O)C(=O)N1 [Compound I-114, (3S)-3-[5-[4-[[1-[4-[(1S,2R)-6-hydroxy-2-(2-pyridyl)tetralin-1-yl]phenyl]-4-piperidyl]methyl]piperazin-1-yl]-1-oxo-isoindolin-2-yl]piperidine-2,6-dione]"
4,0.63 nM,O=C1CC[C@H](N2Cc3cc(N4CCN(CC5CCN(c6ccc([C@@H]7c8ccc(O)cc8CC[C@@H]7c7ccccn7)cc6)CC5)CC4)ccc3C2=O)C(=O)N1 [Compound I-115]
5,≥ 10000 nM,"CC1(C)CC([C@H]2CCc3cc(O)ccc3[C@H]2c2ccc(N3CCC(CN4CCN(c5ccc6c(c5)CN([C@H]5CCC(=O)NC5=O)C6=O)CC4)CC3)cc2)CC(C)(C)C1 [Compound I-116, (3.5)-3-[5-[4-[[1-[4-[(1S,2S)-6-hydroxy-2-(3,3,5,5-tetramethylcyclohexyl)tetralin-1-yl]phenyl]-4-piperidyl]methyl]piperazin-1-yl]-1-oxo-isoindolin-2-yl]piperidine-2,6-dione]"
6,≥ 10000 nM,"CC1(C)CC([C@@H]2CCc3cc(O)ccc3[C@@H]2c2ccc(N3CCC(CN4CCN(c5ccc6c(c5)CN([C@H]5CCC(=O)NC5=O)C6=O)CC4)CC3)cc2)CC(C)(C)C1 [Compound I-117, (35)-3-[5-[4-[[1-[4-[(1R,2R)-6-hydroxy-2-(3,3,5,5-tetramethylcyclohexyl)tetralin-1-yl]phenyl]-4-piperidyl]methyl]piperazin-1-yl]-1-oxo-isoindolin-2-yl]piperidine-2,6-dione]"
7,600 nM,"O=C1CC[C@H](N2Cc3cc(N4CCN(CC5CCN(c6cc(F)c([C@H]7c8ccc(O)cc8CC[C@H]7C7CCCCC7)c(F)c6)CC5)CC4)ccc3C2=O)C(=O)N1 [Compound I-118, (S)-3-(5-(4-((1-(4-((1R,2S)-2-cyclohexyl-6-hydroxy-1,2,3,4-tetrahydronaphthalen-1-yl)-3,5-difluorophenyl)piperidin-4-yl)methyl)piperazin-1-yl)-1-oxoisoindolin-2-yl)piperidine-2,6-dione]"
8,6 nM,"O=C1CC[C@H](N2Cc3cc(N4CCN(CC5CCN(c6cc(F)c([C@@H]7c8ccc(O)cc8CC[C@@H]7C7CCCCC7)c(F)c6)CC5)CC4)ccc3C2=O)C(=O)N1 [Compound I-119, (S)-3-(5-(4-((1-(4-((1S,2R)-2-cyclohexyl-6-hydroxy-1,2,3,4-tetrahydronaphthalen-1-yl)-3,5-difluorophenyl)piperidin-4-yl)methyl)piperazin-1-yl)-1-oxoisoindolin-2-yl)piperidine-2,6-dione]"
9,≥ 10000 nM,"O=C1CC[C@H](N2Cc3cc(N4CCN(CC5CCN(c6ccc([C@H]7c8ccc(O)cc8CC[C@H]7CC7CCCC7)cc6)CC5)CC4)ccc3C2=O)C(=O)N1 [Compound I-120, (S)-3-(5-(4-((1-(4-((1S,2S)-2-(cyclopentylmethyl)-6-hydroxy-1,2,3,4-tetrahydronaphthalen-1-yl)phenyl)piperidin-4-yl)methyl)piperazin-1-yl)-1-oxoisoindolin-2-yl)piperidine-2,6-dione]"
10,3 nM,"O=C1CC[C@H](N2Cc3cc(N4CCN(CC5CCN(c6ccc([C@@H]7c8ccc(O)cc8CC[C@@H]7CC7CCCC7)cc6)CC5)CC4)ccc3C2=O)C(=O)N1 [Compound I-121, (S)-3-(5-(4-((1-(4-((1R,2R)-2-(cyclopentylmethyl)-6-hydroxy-1,2,3,4-tetrahydronaphthalen-1-yl)phenyl)piperidin-4-yl)methyl)piperazin-1-yl)-1-oxoisoindolin-2-yl)piperidine-2,6-dione]"
11,≥ 10000 nM,"O=C1CC[C@H](N2Cc3cc(N4CCN(CC5CCN(c6ccc([C@H]7c8ccc(O)cc8COC78CCCCC8)cc6)CC5)CC4)ccc3C2=O)C(=O)N1 [Compound I-122, (S)-3-(5-(4-((1-(4-((S)-7′-hydroxyspiro[cyclohexane-1,3′-isochroman]-4′-yl)phenyl)piperidin-4-yl)methyl)piperazin-1-yl)-1-oxoisoindolin-2-yl)piperidine-2,6-dione]"
12,0.31 nM,"O=C1CC[C@H](N2Cc3cc(N4CCN(CC5CCN(c6ccc([C@@H]7c8ccc(O)cc8COC78CCCCC8)cc6)CC5)CC4)ccc3C2=O)C(=O)N1 [Compound I-123, (S)-3-(5-(4-((1-(4-((R)-7′-hydroxyspiro[cyclohexane-1,3′-isochroman]-4′-yl)phenyl)piperidin-4-yl)methyl)piperazin-1-yl)-1-oxoisoindolin-2-yl)piperidine-2,6-dione]"
13,1 nM,"C[C@H]1CCc2cc(O)ccc2[C@H]1c1ccc(N2CCC(CN3CCN(c4ccc5c(c4)CN([C@H]4CCC(=O)NC4=O)C5=O)CC3)CC2)cc1 [Compound I-124, (S)-3-(5-(4-((1-(4-((1R,2S)-6-hydroxy-2-methyl-1,2,3,4-tetrahydronaphthalen-1-yl)phenyl)piperidin-4-yl)methyl)piperazin-1-yl)-1-oxoisoindolin-2-yl)piperidine-2,6-dione]"
14,3300 nM,"C[C@@H]1CCc2cc(O)ccc2[C@@H]1c1ccc(N2CCC(CN3CCN(c4ccc5c(c4)CN([C@H]4CCC(=O)NC4=O)C5=O)CC3)CC2)cc1 [Compound I-125, (S)-3-(5-(4-((1-(4-((1S,2R)-6-hydroxy-2-methyl-1,2,3,4-tetrahydronaphthalen-1-yl)phenyl)piperidin-4-yl)methyl)piperazin-1-yl)-1-oxoisoindolin-2-yl)piperidine-2,6-dione]"
15,0.07 nM,"O=C1CC[C@H](N2Cc3cc(N4CCN(CC5CCN(c6ccc([C@@H]7c8ccc(O)cc8CC[C@@H]7c7cccc(O)c7)cc6)CC5)CC4)ccc3C2=O)C(=O)N1 [Compound I-126, (3S)-3-[5-[4-[[1-[4-[(1R,2S)-6-hydroxy-2-(3-hydroxyphenyl)tetralin-1-yl]phenyl]-4-piperidyl]methyl]piperazin-1-yl]-1-oxo-isoindolin-2-yl]piperidine-2,6-dione]"
16,≥ 10000 nM,"O=C1CC[C@H](N2Cc3cc(N4CCN(CC5CCN(c6ccc([C@H]7c8ccc(O)cc8CC[C@H]7c7cccc(O)c7)cc6)CC5)CC4)ccc3C2=O)C(=O)N1 [Compound I-127, (3S)-3-[5-[4-[[1-[4-[(1S,2R)-6-hydroxy-2-(3-hydroxyphenyl)tetralin-1-yl]phenyl]-4-piperidyl]methyl]piperazin-1-yl]-1-oxo-isoindolin-2-yl]piperidine-2,6-dione]"
17,0.0491 nM,"O=C1CC[C@H](N2Cc3cc(N4CCN(CC5CCN(c6ccc([C@@H]7c8ccc(O)cc8CC[C@@H]7c7ccncc7)cc6)CC5)CC4)ccc3C2=O)C(=O)N1 [Compound I-132, (S)-3-(5-(4-((1-(4-((1R,2S)-6-hydroxy-2-(pyridin-4-yl)-1,2,3,4-tetrahydronaphthalen-1-yl)phenyl)piperidin-4-yl)methyl)piperazin-1-yl)-1-oxoisoindolin-2-yl)piperidine-2,6-dione]"

row,Structure (SMILES),DC50
1,"O=C1CC[C@H](N2Cc3cc(N4CCN(CC5CCN(c6ccc([C@H]7c8ccc(O)cc8CC[C@H]7c7ccc(O)cc7)cc6)CC5)CC4)ccc3C2=O)C(=O)N1 [Compound I-130, (35)-3-[5-[4-[[1-[4-[(1S, 2R)-6-hydroxy-2-(4-hydroxyphenyl)tetralin-1-yl]phenyl]-4-piperidyl]methyl]piperazin-1-yl]-1-oxo-isoindolin-2-yl]piperidine-2,6-dione]",≥ 10000 nM
2,"O=C1CC[C@H](N2Cc3cc(N4CCN(CC5CCN(c6ccc([C@@H]7c8ccc(O)cc8CC[C@@H]7c7ccc(O)cc7)cc6)CC5)CC4)ccc3C2=O)C(=O)N1 [Compound I-131, (35)-3-[5-[4-[[1-[4-[(1R, 2S)-6-hydroxy-2-(4-hydroxyphenyl)tetralin-1-yl]phenyl]-4-piperidyl]methyl]piperazin-1-yl]-1-oxo-isoindolin-2-yl]piperidine-2,6-dione]",0.03 nM

# From patent US20250388565A1, “ESTROGEN RECEPTOR ALPHA DEGRADERS AND METHODS OF USE THEREOF” (Relay Therapeutics, Inc., priority 2022, published 2025)
